From patent US12546785B2, “IL-17F and IL-17A-specific capture agents, compositions, and methods of using and making” (Regeneron Pharmaceuticals, Inc., priority 2017, dated 2026)
Bridge positions count the residues as written; N and C are the ends. Square brackets hold non-standard residues; d marks the D form. Triazole bridges read from a SMILES are 1,4-linked. Peptide text beside a SMILES is read from it. * marks the point of attachment. ξ: configuration not given here. X1 = O=C(CCCCC1SC[C@H]2NC(=O)N[C@@H]12)NCCCOCCOCCOCCCN*; Lys(N3) = [N-]=[N+]=NCCCC[C@H](N)C(=O)O; Thr(3ξ) = CC(O)[C@H](N)C(=O)O; Pra = C#CC[C@H](N)C(=O)O

What was measured:
[1] = molecular target: T1, His-tagged IL-17F Epitope1 (C48S) (Homo sapiens, UniProt Q96PD4); assay: Assay to determine orientation of macrocycle binding to IL-17F Epitope1 (point ELISA with His-tagged epitopes); conditions: epitope 2 μM, unscrambled
T1 construct: made in house; host or cells: chemical peptide synthesis
Description: (§1) Assay to determine orientation of macrocycle binding to IL-17F Epitope1. A black 96-well NeutrAvidin Coated High Binding Capacity plate (15510, Pierce) was coated with 2 μM macrocyclic peptide ligand in TBS (pH 7.6) for 2 h at room temperature. Biotinylated monoclonal anti-IL17F (TA319597, Origene) was coated at 4 μg/mL in TBS as a control. The plate was aspirated and then washed with TBS (5×) and Wash Buffer (0.05% (v/v) Tween-20 in PBS, 1×). Chemically synthesized His-tagged IL-17F epitopes were prepared at 2 μM in Wash Buffer and incubated in the designated microwells for 90 min at room temperature. Wash Buffer without epitope was added as a control. Microwells were aspirated and subsequently washed with Wash Buffer (10×). To detect the bound IL-17F epitopes, Alkaline Phosphatase (AP)-conjugated Anti-6X His tag® antibody [HIS-1] (ab49746, Abcam) was prepared at 1:10,000 dilution and added to the microwells for 1 h at room temperature. The plate was aspirated and washed with Wash Buffer (11×). AttoPhos® AP Fluorescent Substrate System (S1000, Promega) was employed to develop the microwells. Using an excitation wavelength of 430 nm, fluorescent emission at 535 nm was recorded by Beckman Coulter DTX880 photometer. Data are shown after subtraction of the no-epitope background.
(§2) For this experiment, the IL-17F Epitope1 was re-synthesized with a His6 assay handle and C48S substitution instead of a click handle. Two additional His-tagged IL-17F epitopes were synthesized to contain strategic scrambling of the sequences either N-terminal or C-terminal to C48S (scrambled residues are shown in italics): • 1) His6-PEG3-[…] (SEQ ID NO:39); • 2) His6-PEG3-[…] (scrambled C-terminal to click handle; SEQ ID NO:40); • 3) His6-PEG3-[…] (scrambled N-terminal to click handle; SEQ ID NO:41).
(§3) In anticipation of forming a biligand with LF2 (SEQ ID NO: 28), it was important to gain insight on whether LF1 (SEQ ID NO:9) preferentially binds to the N- or C-terminus of Epitope1. Therefore, two His-tagged IL-17F epitopes were generated, scrambling the sequence either N-terminal or C-terminal to the location of the azide click handle. His6 assay handle and C48S substitution instead of a click handle. The scrambled amino acids are shown in italics. MALDI-TOF MS (m/z): calculated for C116H163N37O31 (M+H) 2571.23; found 2571.57.

[2] = system: His-tagged IL-17F Epitope1 (C48S); assay: as above; conditions: for ELISA signal for epitope scrambled C-terminal to click handle / binding to epitope scrambled N-terminal to click handle: epitope 2 μM
Description: as §1, §2, §3

IL-17F protein [3] = molecular target: T2, IL-17F protein (Homo sapiens, UniProt Q96PD4); assay: Fluorescence polarization titration in solution; assay type: binding; conditions: for Kd: 5-FITC-tagged macrocycles, in solution; for standard Gibbs free energy change (ΔG°=RTlnKD) of binding to IL-17F: 25° C.
T2 construct: His tag
T2 sequence (Q96PD4 31-163): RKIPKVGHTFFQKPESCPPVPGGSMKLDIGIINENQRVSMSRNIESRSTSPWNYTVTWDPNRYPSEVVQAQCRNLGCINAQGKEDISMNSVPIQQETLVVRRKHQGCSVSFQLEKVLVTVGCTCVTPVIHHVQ
Description: The bonding affinities of the macrocycles were tested in solution by titrating the recombinant human IL-17F protein against fluorescein 5-isothiocyanate (5-FITC)-tagged macrocycles by fluorescence polarization. […] The structure of LA3 (SEQ ID NO:44), the lead macrocycle developed against IL-17A Epitope3, is shown below (X=PEG3-biotin). MALDI-TOF MS (m/z): calcd. for C62H98N22O13S (M+H) 1391.74; found 1392.36.

IL-17F protein [4] = molecular target: T2, IL-17F protein; assay: IL-17F binding in a background of human serum, surface-immobilized ligand; conditions: up to 10% (v/v) serum
From the text: Binding to IL-17F in 25% (v/v) serum is also detectable.
Target binding in biologically complex samples was interrogated by contacting surface-immobilized macrocycles with IL-17F protein in a background of human serum.

[5] = molecular target: T3, full-length His-tagged IL-17F protein (Homo sapiens, UniProt Q96PD4); assay: Sandwich ELISA: IL-17F captured by ligand immobilized on NeutrAvidin plate; assay type: binding
T3 construct: Full-length His-tagged IL-17F protein (ab167911, Abcam) was serially diluted in Wash Buffer; purchased Abcam ab167911
T3 sequence (Q96PD4 31-163): T2 sequence (Q96PD4 31-163)
Description: Sandwich ELISA. A black 96-well NeutrAvidin Coated High Binding Capacity plate (15510, Pierce) was coated with 2 μM macrocyclic peptide ligand in TBS (25 mM Tris-HCl, 150 mM NaCl, pH 7.6) for 2 h at room temperature. Biotinylated monoclonal anti-IL17F (TA319597, Origene) was coated at 4 μg/mL in TBS as a control. The plate was aspirated and then washed with TBS (5×) and Wash Buffer (0.05% (v/v) Tween-20 in PBS, 1×). Full-length His-tagged IL-17F protein (ab167911, Abcam) was serially diluted in Wash Buffer (from 800 to 0 nM) and incubated in the designated microwells for 90 min at room temperature. Microwells were aspirated and subsequently washed with Wash Buffer (10×). To detect the bound IL-17F protein, Alkaline Phosphatase (AP)-conjugated Anti-6X His tag® antibody [HIS-1] (ab49746, Abcam) was prepared at 1:10,000 dilution and added to the microwells for 1 h at room temperature. The plate was aspirated and washed with Wash Buffer (11×). AttoPhos® AP Fluorescent Substrate System (S1000, Promega) was employed to develop the microwells. Using an excitation wavelength of 430 nm, fluorescent emission at 535 nm was recorded by Beckman Coulter DTX880 photometer. Titration curves were fit using a four-parameter regression curve fitting program (Origin 8.5) to determine EC50 values.
(§4) For these assays, a dilution series of full-length His-tagged IL-17F protein was captured using the macrocyclic peptide ligands immobilized on a NeutrAvidin-coated plate.
Sandwich ELISA. These assays were performed using the same protocol that was used to evaluate the IL-17F Epitope1 targeted ligands.
as §4

| Kd ([5]; against His-tagged IL-17F) [nM] | EC50 ([5]; surface-immobilized ligand, dilution series of His-tagged IL-17F) [nM] | SMILES | ELISA signal for His-tagged IL-17F Epitope1 (C48S) [1] | ELISA signal for epitope scrambled C-terminal to click handle [2] | binding to epitope scrambled N-terminal to click handle [2] | Kd (IL-17F protein [3]) [nM] | standard Gibbs free energy change (ΔG°=RTlnKD) of binding to IL-17F (IL-17F protein [3]) [kcal/mol] | IL-17F binding efficiency in human serum (IL-17F protein [4]) | preferred binding region within IL-17F Epitope1 ([2]; scrambled N- or C-terminus peptides) | binding affinity compared, in words ([5]; sandwich ELISA, IL-17F) |
| --- | --- | --- | --- | --- | --- | --- | --- | --- | --- | --- |
| – | – | C[C@@H]1NC(=O)[C@H](CCCNC(=N)N)NC(=O)[C@H](CCCNC(=N)N)NC(=O)[C@@H](N)Cc2cn(nn2)CCCC[C@@H](C(=O)NCCCOCCOCCOCCCNC(=O)CCCCC2SC[C@H]3NC(=O)N[C@@H]23)NC(=O)[C@H](CO)NC(=O)[C@H](CCC(N)=O)NC1=O (stereo partly shown) [Cy(RRAQSX1X2), Cy(RRAQSX1X2)-PEG3-biotin] (H-[Pra]RRAQS[Lys(N3)]-X1; triazole 1-7) | positive ELISA signals | positive ELISA signals | Binding was destroyed | – | – | – | – | – |
| – | – | CC(O)[C@@H]1NC(=O)[C@H](C)NC(=O)[C@H](CCCNC(=N)N)NC(=O)[C@H](CCCNC(=N)N)NC(=O)[C@@H](N)Cc2cn(nn2)CCCC[C@@H](C(=O)NCCCOCCOCCOCCCNC(=O)CCCCC2SC[C@H]3NC(=O)N[C@@H]23)NC(=O)[C@H](CO)NC1=O (stereo partly shown) [Cy(RRATSX1X2), Cy(RRATSX1X2)-PEG3-biotin] (H-[Pra]RRA[Thr(3ξ)]S[Lys(N3)]-X1; triazole 1-7) | positive ELISA signals | positive ELISA signals | Binding was destroyed | 50 ± 15 | -9.9 | no reduction in IL-17F binding efficiency | preferentially bind to the N-terminal portion of Epitope1 | – |
| 15 | 15 ± 5 | C=C1N[C@@H](CCCCN)C(=O)N[C@H](C(N)=O)CCCCn2cc(nn2)C[C@H](NC(=O)COCCOCCOCCNC(=O)CCCC[C@@H]2SC[C@@H]3NC(=O)N[C@@H]32)C(=O)N[C@@H](CCCNC(=N)N)C(=O)N[C@@H](CO)C(=O)N[C@@H](Cc2ccc(O)cc2)C(=O)N[C@H]1CC(N)=O [Cy(RSYNKX1X2), Biotin-PEG3-Cy(RSYNKXIX2)] | – | – | – | 28 ± 9 | -10.3 | reduced intensity | – | exceeds the binding affinity of the similarly assayed biotinylated monoclonal anti-IL17F |
